Measured values from US20200009068A1, “NANOPARTICLE FORMULATIONS FOR ENHANCED DRUG DELIVERY TO THE BLADDER” (The Johns Hopkins University, priority 2017, published 2020).

Assays:
[1] = test system: RT4 cells; test: In vitro cytotoxicity assay (CellTiter-Glo cell viability); assay type: cell-based, human; conditions: 72 hr, triplicate
Description: In vitro cytotoxicity of CDDP, oxaliplatin, PAA-CDDP NPs, PEGlow-PAA-CDDP NPs and PEGhigh-PAA-CDDP NPs was evaluated using a superficial bladder cancer cell line (RT4) in triplicate. RT4 cells were purchased from the American Type Culture Collection (ATCC, Manassas, Va.) and cultured in McCoy's 5A (Thermo Fisher Scientific, Waltham, Mass.) at 37° C. under 5% CO2. Cells were seeded in 96-well tissue-treated culture plates at a density of 5×10^3 cells in 100 μl of complete medium and cultured overnight. Then, the supernatant was removed, and a known concentration of CDDP, oxaliplatin, or CDDP NPs (100 μl) was added into the wells. After 72 hr, cell viability was measured using CellTiter-Glo Luminescent Cell Viability Assay Kit (Promega, Madison, Wis.) according to manufacturer's protocol. Acquired data was analyzed to depict sigmoidal dose-response curve with Graph Pad Prism 5 (Graph Pad Software Inc., San Diego, Calif.) using the equation log(inhibitor) vs. response-variable slope.

[2] = test system: N-methyl-N-nitrosourea (MNU) induced rat bladder carcinogenesis model; test: In vivo efficacy, tumor staging by histopathology; conditions: weekly intravesical dosing weeks 8-14, 0.7 mg/ml in 300 μl, sacrifice week 15
Text: The N-methyl-N-nitrosourea (MNU) rat model of bladder cancer was chosen because it recapitulates human non-muscle invasive bladder cancer, with carcinoma in situ (CIS), non-invasive papillary carcinoma (Ta), and high grade invasive papillary carcinoma (T1) histologies, and progresses from dysplasia to NMIBC to MIBC (Steinberg G D, et al., Cancer Res, 50(20):6668-74 (1990)). This animal model progresses from dysplasia to NMIBC between about week 8 and about week […], making it a desirable time to initiate treatment and a good recapitulation of a chemopreventative treatment model. Additionally, the MNU model represents an outbred strain of NMIBC, as opposed to an inbred strain utilizing immortal clones of genetically identical tumor strains. […] Since no reliable xenograft model was believed to be present of NMIBC that progresses to MIBC in a temporal time-dependent fashion similar to human urothelial cancer, a carcinogen model was chosen to recapitulate the heterogeneity of human disease, study the antineoplastic and immunologic effects of treatment, and reflect the typical progression of non-muscle to muscle invasive cancer. In this model, the presence of NMIBC progresses from about week 8 to about week 15, at which point all rats have NMIBC.
Fischer 344 female rats (age 7 weeks) were anesthetized with an isoflurane vaporizer and nose cone system. […]

[3] = 50 patients, intravesical CDDP for more than 4 months; cited from earlier work
[4] = CDDP levels in mouse bladder after intravesical administration; assay type: in vivo; conditions: mice
Description: Female CF-1 mice (age 8 weeks) were purchased from Harlan (Indianapolis, Ind.) and acclimated in the animal facility for 4 weeks. Mice were randomly divided into different groups (n≥5). Mice were anesthetized with an isoflurane vaporizer and nose cone system and catheterized using polyethylene tubing mounted on a 30G needle. After catheterization, the bladder was emptied of urine by aspiration and/or gentle pressure on the abdomen. Then, 100 μl of CDDP solution, PAA-CDDP NPs, PEGlow-PAA-CDDP NPs or PEGhigh-PAA-CDDP NPs at 0.7 mg/ml CDDP content was instilled into the bladder by intravesical administration. Mice were maintained under anesthesia for 1 h and then allowed to wake up. To assess systemic exposure, mice were euthanized at 1, 4, and 24 h and plasma was obtained for analysis of CDDP content. To assess local toxicity of CDDP solution and CDDP NPs, mice received a total of three intravesical doses spaced one week apart. Bladder tissues were obtained 24 h after the third dose, photographed, and weighed.
200 μl of plasma or bladder were transferred to a clean borosilicate glass cell culture tube, and 1 ml of 22% nitric acid was added. All samples were heated to 90° C. to digest plasma proteins or bladder tissues and to extract platinum. […] CDDP content in the solution was analyzed by AAS. The lowest limit of quantification for CDDP was 250 ng/ml (<1% of the administered dose).

[5] = systemic CDDP therapy; cited from earlier work
[6] = test system: N-methyl-N-nitrosourea (MNU) induced rat bladder carcinogenesis model; test: Immunohistochemical staining of bladder sections; assay type: in vivo; conditions: CDDP study, week 15
Description: Fischer 344 female rats (age 7 weeks) were anesthetized with an isoflurane vaporizer and nose cone system. After complete anesthesia and preparation of the surgical area, a 20G angiocatheter (BD) was placed into the rat's urethra and the bladder was emptied of urine. MNU (1.5 mg/kg MNU dissolved in 0.30 ml of 0.9% saline, pH 6.0) was then instilled into the bladder under 45 min of continued sedation to prevent spontaneous micturition and allow absorption. In order to explore the potential for treatment to prevent recurrence, treatment was initiated from weeks 8-14. Treatment groups (n=5 per group) included CDDP and PAA-CDDP NPs dosed weekly. All formulations were delivered at a concentration of 0.7 mg/ml in 300 μl. Rats were sacrificed at week 15 for histopathologic analysis of bladder tissue. Bladders were formalin fixed, paraffin embedded, sectioned, and stained with hematoxylin-eosin for classification according to the World Health Organization/International Society of Urological Pathology consensus. Tumor staging was performed in a blinded fashion by a board certified genitourinary pathologist.
For immunohistochemical staining, high-temperature antigen retrieval (18-23 psi/126° C.) was performed by immersing the slides in Trilogy (Cell Marque, Hot Springs, Ark.). Endogenous peroxidase activity was blocked for 5 min in using Dual Endogenous Enzyme Block (Dako S2003). Primary Antibody used included KI 67 (Abcam;ab16667). Slides were stained with Impact DAB (Vector Labs, Burlingame, Calif., USA) for 3 min and counterstained with haematoxylin (Richard-Allen, Kalamazoo, Mich., USA). For each section, Ki67+, cells were counted in 10 random 400× fields.
In a MNU-induced rat bladder carcinogenesis model as described in Example 3, Fischer Rat received weekly intravesical administration of Taxotere, DTX NS, or saline, for six weeks.

[7] = Bladder uptake and retention in rats (CDDP content by AAS); assay type: in vivo; conditions: intravesical
Description: Female Fischer 344 rats (age 7 weeks) were purchased from Harlan (Indianapolis, Ind.) and acclimated in the animal facility for 1 week. Before starting the experiment, rats were randomly divided into different groups (n≥5). Rats were anesthetized with an isoflurane vaporizer and nose cone system and catheterized using a 20G angiocatheter sheath. After catheterization, the bladder was voided using aspiration and/or gentle pressure on the abdomen. Then, 300 μl of CDDP solution, PAA-CDDP NPs, PEGlow-PAA-CDDP NPs, or PEGhigh-PAA-CDDP NPs (CDDP content 0.7 mg/ml) was instilled by intravesical administration. Rats were maintained under anesthesia for 1 h and then allowed to wake up. Plasma and bladder tissues were obtained at 1 and 4 h for analysis of CDDP content. Bladder tissues were dipped in PBS and gently squeezed with forceps to remove any residual fluid.
200 μl of plasma or bladder were transferred to a clean borosilicate glass cell culture tube, and 1 ml of 22% nitric acid was added. All samples were heated to 90° C. to digest plasma proteins or bladder tissues and to extract platinum. The solution was heated until a dry yellow film was obtained. Then, 1 ml of 2.2% nitric acid added to dissolve the dried residue containing platinum. CDDP content in the solution was analyzed by AAS. The lowest limit of quantification for CDDP was 250 ng/ml (<1% of the administered dose).

| Structure (SMILES) | RT4 cells-IC50 [1] | rats with T1 high grade tumors in the bladder [2] [%] | patients who stopped treatment early due to chemical cystitis [3] [%] | patients with anaphylactic reaction due to systemic drug absorption resulting in hypotensive shock [3] [%] | CDDP levels in mouse bladder at 1 h ([4]; 1 h under anesthesia) | CDDP levels in mouse bladder at 4 h ([4]; 4 h (3 h ambulatory time)) | cases with hypersensitivity reactions [5] | Ki67+ staining compared to untreated controls [6] | number of CD3+ cells compared to untreated controls [6] | number of CD8+ cells compared to untreated controls [6] | number of Foxp3+ cells compared to untreated controls [6] | CDDP levels in rat bladder at 4 h [7] |
| --- | --- | --- | --- | --- | --- | --- | --- | --- | --- | --- | --- | --- |
| N.N.[Cl][Pt][Cl] [Cisplatin, cis-diamminedichloridoplatinum (II)] | 1.39 ± 0.03 μg/ml of Pt | 20 | 6 | 14 | similar | below the limit of quantitation | 5-20% | decreased Ki67+ staining, though statistically indistinguishable from the untreated control group | without differences | significantly lower numbers | without differences | below the level of detection |
| N.N.O=C([O-])C1(C(=O)[O-])CCC1.[Pt+2] [Carboplatin] | 17.18 ± 0.056 μg/ml of Pt | – | – | – | – | – | – | – | – | – | – | – |
